Patent EP0922101B1, “EGF-LIKE FACTOR FROM CHROMAFFIN GRANULES AND GLIA CELL-DERIVED NEUROTROPHIC FACTOR WITH SURVIVAL-PROMOTING ACTIVITY ON DAERGIC NEURONS” (BIOPHARM Gesellschaft zur biotechnologischen Entwicklung …, priority 1996, dated 1998)
Entries after “also recorded” stand apart in the source; their conditions may differ.

Assays:
[1] = system: mesencephalic DAergic neurons; assay: Survival of TH-positive DAergic neurons in dissociated E14 ventral mesencephalic cell cultures (TH immunocytochemistry, cell counts); assay type: cell-based, rat; conditions: for effect on survival promoting effect of chromaffin granule protein: 30 µM in combination with chromaffin granule protein 1:50, DIV1-DIV8; for basal survival of TH-immunoreactive neurons: 30 µM, control cultures, DIV8; for survival promoting activity: concentrations up to 100 ng/ml, treated for 7 days
Experimental: (§1) Tissue culture. Mesencephalic cell cultures were essentially established as described by Krieglstein and Unsicker (1994). In brief, the ventral midbrain floor was dissected from embryonic day (E) 14 Wistar rat fetuses of two litters (20-25 embryos) and collected in CMF. Tissue pieces were enzymatically dissociated using 0.25% trypsin (BioWhittaker) in CMF for 15 min at 37°C. After addition of an equal volume of ice-cold horse serum and 1mg DNAse, Cells were triturated with fire-polished and siliconized pasteur pipettes and subsequently washed with DMEM/F12. The single cell suspension (100µl) was seeded on polyornithine (0.1 mg/ml in 15mM borate buffer, pH 8.4, Sigma)-laminin (5µg/ml; Sigma) coated glass cover slips at a density of 200.000 cells/cm^2. Coverslips were incubated in a humified 5% CO2/95% air atmosphere to allow cells to attach. After two hours coverslips were transferred to 24-well plates (Falcon) containing 750 µl medium. On the following day, and subsequently every three days, 500 µl of the medium was replaced and neurotrophic factors were added at the same time at the given concentrations.
Immunocytochemistry. To identify DAergic or serotinergic neurons cells were visualized using antibodies aginst tyrosine hydroxylase (TH), or serotonin, respectively. Cells were fixed with 4% paraformaldehyde buffered in phosphate buffered saline (PBS) for 10 min at room temperature, permeabilized with acetone at -20°C for 10 min and washed with (PBS). After blocking with 1% H2O2 in PBS, followed by 1 % horse serum, coverslips were stained with a monoclonal antibody to rat TH (1:200; Boehringer Mannheim; diluted in 1 % horse serum) or with an antibody against serotonin (1:50; DAKO) for 1 h at 37°C. Specific staining was vizualized using the anti-mouse Vectastain ABC kit in combination with DAB (Camon, Germany). For glial fibrillary acidic protein (GFAP) immunocytochemistry, cells were fixed and permeabilized using aceton at -20°C for 20 min, then washed with PBS and incubated with a monoclonal antibody against GFAP (1:100; Sigma) for 1 h at 37°C. As a secondary antibody TRITC anti-mouse-IgG was used. To monitor cell proliferation bromodesoxyuridine (BrdU) was added to the culture, 24 hours prior fixation, at a final concentration of 10 µM. Cells were washed twice with PBS and fixed with 70% ethanol buffered with 50 mM glycine, pH 2.0, for 20 min at -20°C. Incorporated BrdU was identified using anti-BrdU detection Kit I (Boehringer, Mannheim). BrdU/TH double detection was achieved by first applying the protocol for BrdU followed after another five washes with PBS and by the procedure for TH staining using TRITC anti-mouse-IgG as a secondary antibody. Nuclei were stained with propidium iodide (20 s, 0.1µg/ml). Coverslips were mounted using Aquatex (Merck, Darmstadt).
(§2) Evaluation of cell numbers. Survival of DAergic neurons was evaluated by counting all TH-positive neurons in one diagonal strips of the coverslip using 100-fold magnification. This area corresponded to 12% of the total area. Quantification was done in triplicate and in at least two independent experiments. The number of GFAP-positive cells were assessed likewise.

[2] = molecular target: p185^c-erbB2 (Homo sapiens, UniProt P04626); conditions: cited from earlier work
[3] = system: GFAP-positive astroglial cells; assay: Induction of GFAP-positive astroglial cells in E14 mesencephalic cell cultures (GFAP immunocytochemistry); assay type: cell-based, rat
Experimental: as §1
Immunocytochemistry. To identify DAergic or serotinergic neurons cells were visualized using antibodies aginst tyrosine hydroxylase (TH), or serotonin, respectively. Cells were fixed with 4% paraformaldehyde buffered in phosphate buffered saline (PBS) for 10 min at room temperature, permeabilized with acetone at -20°C for 10 min and washed with (PBS). After blocking with 1% H2O2 in PBS, followed by 1 % horse serum, coverslips were stained with a monoclonal antibody to rat TH (1:200; Boehringer Mannheim; diluted in 1 % horse serum) or with an antibody against serotonin (1:50; DAKO) for 1 h at 37°C. Specific staining was vizualized using the anti-mouse Vectastain ABC kit in combination with DAB (Camon, Germany). For glial fibrillary acidic protein (GFAP) immunocytochemistry, cells were fixed and permeabilized using aceton at -20°C for 20 min, then washed with PBS and incubated with a monoclonal antibody against GFAP (1:100; Sigma) for 1 h at 37°C. As a secondary antibody TRITC anti-mouse-IgG was used. […]
as §2, with “This area corresponded to 12% of the total area.” left out
In an initial series of experiments the chromaffin granule-derived activity is analyzed by specifically blocking its putative receptor pathway. […] When cultures were treated with TGF-α, a physiological EGFR ligand in the CNS, or EGF (10 ng/ml), only few GFAP-positive astroglial cells could be detected (Fig. 12). […]

[4] = molecular target: HER1-2-kinase; conditions: HER1-2-kinase autophosphorylation; cited from earlier work
[5] = molecular target: EGFR kinase (Homo sapiens, UniProt P00533); conditions: EGFR kinase autophosphorylation; cited from earlier work
[6] = 10µM with chromaffin granule protein 1:50, six days

Chain of p185^c-erbB2 (P04626 23-1255): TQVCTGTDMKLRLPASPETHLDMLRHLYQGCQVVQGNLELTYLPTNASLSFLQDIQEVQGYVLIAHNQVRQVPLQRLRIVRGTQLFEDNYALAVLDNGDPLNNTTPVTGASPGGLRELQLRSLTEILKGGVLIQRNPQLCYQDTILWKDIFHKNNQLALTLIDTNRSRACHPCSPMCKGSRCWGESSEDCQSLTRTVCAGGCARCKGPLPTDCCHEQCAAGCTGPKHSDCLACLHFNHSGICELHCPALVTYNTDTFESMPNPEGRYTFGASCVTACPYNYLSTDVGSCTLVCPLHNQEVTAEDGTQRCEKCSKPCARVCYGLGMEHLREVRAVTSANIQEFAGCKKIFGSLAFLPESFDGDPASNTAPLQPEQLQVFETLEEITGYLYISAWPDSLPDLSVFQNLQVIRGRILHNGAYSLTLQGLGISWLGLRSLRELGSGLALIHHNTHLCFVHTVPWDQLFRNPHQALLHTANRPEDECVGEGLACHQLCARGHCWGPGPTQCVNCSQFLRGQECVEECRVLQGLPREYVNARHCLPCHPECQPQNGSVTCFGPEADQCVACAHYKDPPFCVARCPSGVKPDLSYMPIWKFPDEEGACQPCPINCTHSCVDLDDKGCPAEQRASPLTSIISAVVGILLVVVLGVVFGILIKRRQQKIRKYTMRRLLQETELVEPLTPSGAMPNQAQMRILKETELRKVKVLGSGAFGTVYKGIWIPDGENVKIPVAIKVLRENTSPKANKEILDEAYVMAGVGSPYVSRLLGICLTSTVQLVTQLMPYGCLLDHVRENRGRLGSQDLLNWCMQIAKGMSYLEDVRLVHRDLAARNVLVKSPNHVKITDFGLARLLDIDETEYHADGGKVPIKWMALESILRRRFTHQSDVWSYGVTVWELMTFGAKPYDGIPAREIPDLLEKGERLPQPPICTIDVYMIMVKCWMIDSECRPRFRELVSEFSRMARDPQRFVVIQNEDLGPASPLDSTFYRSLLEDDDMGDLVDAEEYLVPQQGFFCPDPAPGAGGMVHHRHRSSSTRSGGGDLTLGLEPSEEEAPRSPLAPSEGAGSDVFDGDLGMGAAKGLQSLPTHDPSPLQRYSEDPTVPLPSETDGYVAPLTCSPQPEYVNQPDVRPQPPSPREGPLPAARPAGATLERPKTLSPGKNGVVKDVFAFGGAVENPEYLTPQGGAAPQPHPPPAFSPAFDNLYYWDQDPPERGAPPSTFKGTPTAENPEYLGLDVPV
Chain of EGFR kinase (P00533 25-1210): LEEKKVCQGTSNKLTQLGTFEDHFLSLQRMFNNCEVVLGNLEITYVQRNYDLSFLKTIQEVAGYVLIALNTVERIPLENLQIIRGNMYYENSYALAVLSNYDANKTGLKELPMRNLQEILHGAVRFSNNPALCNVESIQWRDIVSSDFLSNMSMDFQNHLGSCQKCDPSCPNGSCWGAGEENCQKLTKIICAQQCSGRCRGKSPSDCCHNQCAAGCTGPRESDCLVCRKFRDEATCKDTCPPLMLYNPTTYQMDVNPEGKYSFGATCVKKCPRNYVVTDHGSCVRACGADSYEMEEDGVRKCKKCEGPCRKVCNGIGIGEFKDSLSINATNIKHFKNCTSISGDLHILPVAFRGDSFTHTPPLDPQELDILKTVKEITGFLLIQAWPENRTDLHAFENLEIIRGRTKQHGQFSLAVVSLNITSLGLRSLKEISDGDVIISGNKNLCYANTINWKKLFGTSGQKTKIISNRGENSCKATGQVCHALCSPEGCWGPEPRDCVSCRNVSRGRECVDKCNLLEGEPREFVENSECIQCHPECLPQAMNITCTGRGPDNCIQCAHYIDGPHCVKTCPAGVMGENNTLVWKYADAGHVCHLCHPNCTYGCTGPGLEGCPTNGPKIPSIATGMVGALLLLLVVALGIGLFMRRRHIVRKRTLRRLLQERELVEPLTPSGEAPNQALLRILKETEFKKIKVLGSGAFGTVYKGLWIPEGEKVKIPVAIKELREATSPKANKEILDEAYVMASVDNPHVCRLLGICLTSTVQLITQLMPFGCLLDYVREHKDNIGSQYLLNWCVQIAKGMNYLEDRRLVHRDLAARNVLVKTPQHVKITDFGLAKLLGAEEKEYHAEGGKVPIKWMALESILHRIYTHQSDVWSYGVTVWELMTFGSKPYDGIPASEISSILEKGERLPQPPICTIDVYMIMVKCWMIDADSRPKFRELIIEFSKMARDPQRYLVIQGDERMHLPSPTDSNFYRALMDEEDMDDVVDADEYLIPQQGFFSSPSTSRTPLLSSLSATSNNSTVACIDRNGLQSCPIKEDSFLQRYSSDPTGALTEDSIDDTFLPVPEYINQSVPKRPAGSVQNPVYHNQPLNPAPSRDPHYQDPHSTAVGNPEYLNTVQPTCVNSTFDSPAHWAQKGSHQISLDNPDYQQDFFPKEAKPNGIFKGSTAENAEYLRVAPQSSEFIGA

NC(CCCC(=O)O)C(=O)O (stereo not drawn) [AA, α-aminoadipic acid]
effect on survival promoting effect of chromaffin granule protein [1]: abolished the survival promoting affect of chromaffin granule protein
basal survival of TH-immunoreactive neurons [1]: without affecting basal survival

O=C1NC(=O)c2cc(Nc3ccccc3)c(Nc3ccccc3)cc21 [DAPH, 4,5-Dianilinophthalimide]
effect on survival of DAergic neurons induced by chromaffin granule activity [1, 6]: inhibited
p185^c-erbB2 autophosphorylation [2]: inhibits
effect on FGF-2-mediated induction of astroglial cells ([3]; 10 µM with FGF-2 at 10 ng/ml, DIV 6): could not be affected by this inhibitor
effect on appearence of astroglial cell induced by the chromaffin granule activity [3, 6]: inhibited
effect on appearance of GFAP-positive astroglial cells in TGF-α or EGF treated cultures ([3]; 10 µM, DIV 6): effectively blocked

O=c1[nH]c(=O)n([C@H]2C[C@H](O)[C@@H](CO)O2)cc1F [FDUR, 5-fluorodeoxyuridine]
effect on survival promoting effect of chromaffin granule protein [1]: abolished the survival promoting affect of chromaffin granule protein
basal survival of TH-immunoreactive neurons [1]: without affecting basal survival

N#C/C(=C\c1ccc(O)c(O)c1)C(=O)NCCCCc1ccccc1 [Tyrphostin B56]
effect on chromaffin granule protein-induced appearence of astroglial cells ([3]; 10µM Tyrphostin B56 with chromaffin granule protein 1:50): successfully inhibited; also recorded: fully blocked the effect of granule protein on mesencephalic glia
IC50 [4]: > 500 µM
IC50 [5]: 5 µM

C[N+](C)(C)CCOC(N)=O [carbachol]
survival of TH-positive neurons ([1]; culture medium containing carbachol (10^-5 M), DIV 8): uneffective

Leu-enkephalin
survival promoting activity [1]: none of these neuropeptides had any survival promoting activity

Met-enkephalin
survival promoting activity [1]: none of these neuropeptides had any survival promoting activity

neuropeptide Y
survival promoting activity [1]: none of these neuropeptides had any survival promoting activity
